Here are results for 2 compounds from patent US10172355B2, “Safened herbicidal compositions including 4-amino-3-chloro-5-fluoro-6-(4-chloro-2-fluoro-3-methoxyphenyl)pyridine-2-carboxylic acid or a derivative thereof for use in rice” (Dow AgroSciences LLC, priority 2012, dated 2019).

This assay has as its system ORYSA=Orysa sativa, Rice. The assay is described as follows: In-water applied herbicides and safeners in transplanted paddy rice, visual injury. In kind it is in vivo. Particulars: for Mean Visual Injury (%) - 21 DAA ORYSA - ‘M202’ / Mean Visual Injury (%) - 21 DAA ORYSA - ‘Wells’: in-water applied. The method, then:
Weed seeds or nutlets of the desired test plant species were planted in puddled soil (mud) prepared by mixing a shredded, non-sterilized mineral soil (50.5 percent silt, 25.5 percent clay, and 24 percent sand, with a pH of about 7.6 and an organic matter content of about 2.9 percent) and water at a 1:1 volumetric ratio. The prepared mud was dispensed in 365 mL aliquots into 16-ounce (oz.) non-perforated plastic pots with a surface area of 86.59 square centimeters (cm^2) leaving a headspace of 3 centimeters (cm) in each pot. Rice seeds were planted in Sun Gro MetroMix® 306 planting mixture, which typically has a pH of 6.0 to 6.8 and an organic matter content of about 30 percent, in plastic plug trays. Seedlings at the second or third leaf stage of growth were transplanted into 860 mL of mud contained in 32-oz. non-perforated plastic pots with a surface area of 86.59 cm^2 4 days prior to herbicide application. The paddy was created by filling the headspace of the pots with 2.5 to 3 cm of water. When required to ensure good germination and healthy plants, a fungicide treatment and/or other chemical or physical treatment was applied. The plants were grown for 4-22 days in a greenhouse with an approximate 14 h photoperiod which was maintained at about 29′C during the day and about 26° C. during the night. Nutrients were added as Osmocote® (17:6:10, N:P:K+minor nutrients) at 2 g per 16-oz. pot and 4 g per 32-oz. pot. Water was added on a regular basis to maintain the paddy flood, and supplemental lighting was provided with overhead metal halide 1000-Watt lamps as necessary. The plants were employed for testing when they reached the second or third true leaf stage.
Treatments consisted of the acid or esters of 4-amino-3-chloro-5-fluoro-6-(4-chloro-2-fluoro-3-methoxy-phenyl)pyridine-2-carboxylic acid (compound A) and various safeners alone and in combination. Forms of compound A were applied on an acid equivalent basis. Safener components were applied on an active ingredient or acid equivalent basis depending on the compound.
Treatment requirements for each compound or herbicidal component were calculated based upon the rates being tested, the concentration of active ingredient or acid equivalent in the formulation, an application volume of 2 mL per component per pot, and an application area of 86.59 cm^2 per pot.
For formulated compounds, a measured amount was placed in an individual 100 or 200 mL glass vial and was dissolved in a volume of 1.25% (v/v) Agri-Dex® crop oil concentrate to obtain application solutions.
For technical grade compounds, a weighed amount can be placed in an individual 100 to 200 mL glass vial and dissolved in a volume of acetone to obtain concentrated stock solutions. […] The concentrated stock solutions obtained can be diluted with an equivalent volume of an aqueous mixture containing 2.5% (v/v) crop oil concentrate so that the final application solutions contain 1.25% (v/v) crop oil concentrate.
Applications were made by injecting with a pipetter appropriate amounts of the application solutions, individually and sequentially, into the aqueous layer of the paddy. Control plants were treated in the same manner with the solvent blank. Applications were made so that all treated plant material received the same concentrations of acetone and crop oil concentrate.
The treated plants and control plants were placed in a greenhouse as described above and water was added as needed to maintain a paddy flood. After approximately 3 weeks the condition of the test plants as compared with that of the untreated plants was determined visually and scored on a scale of 0 to 100 percent where 0 corresponds to no injury or growth inhibition and 100 corresponds to complete kill.
Colby's equation was used to determine the herbicidal effects expected from the mixtures (Colby, S. R. 1967. Calculation of the synergistic and antagonistic response of herbicide combinations. Weeds 15:20-22.). […]

SMILES strings stand for the structures.

As for `COc1c(Cl)ccc(-c2nc(C(=O)O)c(Cl)c(N)c2F)c1F` [Acid, 4-amino-3-chloro-6-(4-chloro-2-fluoro-3-methoxyphenyl)-5-fluoropyridine-2-carboxylic acid], the “Mean Visual Injury (%) - 21 DAA ORYSA - ‘M202’” value is, setting by setting: (8.75 g ae/ha) 0%; (17.5 g ae/ha) 0%; (35 g ae/ha) 0%; (70 g ae/ha) 3%; (140 g ae/ha) 25%. The “Mean Visual Injury (%) - 21 DAA ORYSA - ‘Wells’” value by setting is: (8.75 g ae/ha) 0%; (17.5 g ae/ha) 0%; (35 g ae/ha) 0%; (70 g ae/ha) 0%; (140 g ae/ha) 8%.
For `COc1c(Cl)ccc(-c2nc(C(=O)OCc3ccccc3)c(Cl)c(N)c2F)c1F` [Benzyl], the “Mean Visual Injury (%) - 21 DAA ORYSA - ‘M202’” value (8.75 g ae/ha) is given as 0%; the “Mean Visual Injury (%) - 21 DAA ORYSA - ‘M202’” value (17.5 g ae/ha) amounted to 0%; the “Mean Visual Injury (%) - 21 DAA ORYSA - ‘M202’” value (35 g ae/ha) worked out at 0%; the “Mean Visual Injury (%) - 21 DAA ORYSA - ‘M202’” value (70 g ae/ha) is reported as 0%; the “Mean Visual Injury (%) - 21 DAA ORYSA - ‘M202’” value (140 g ae/ha) is recorded as 22%. Further, the “Mean Visual Injury (%) - 21 DAA ORYSA - ‘Wells’” value worked out at 0% (8.75 g ae/ha); 0% (17.5 g ae/ha); 3% (35 g ae/ha); 0% (70 g ae/ha); 15% (140 g ae/ha). Besides, the selectivity margin result (in-water, relative rice and barnyardgrass responses, over that of the acid) was “improved selectivity margin”.
